The target of experiment [1] is T1, binding of PAI-1 to vitronectin in PAI-1-depleted extracellular matrix of endothelial cells (Homo sapiens, UniProt P04004).
T1 construct: The extracellular matrix of human umbilical vein endothelial cells was prepared according to standard procedures; endogenous in cells; host or cells: extracellular matrix of human umbilical vein endothelial cells, glycine-treated
T1 sequence (P04004 20-478): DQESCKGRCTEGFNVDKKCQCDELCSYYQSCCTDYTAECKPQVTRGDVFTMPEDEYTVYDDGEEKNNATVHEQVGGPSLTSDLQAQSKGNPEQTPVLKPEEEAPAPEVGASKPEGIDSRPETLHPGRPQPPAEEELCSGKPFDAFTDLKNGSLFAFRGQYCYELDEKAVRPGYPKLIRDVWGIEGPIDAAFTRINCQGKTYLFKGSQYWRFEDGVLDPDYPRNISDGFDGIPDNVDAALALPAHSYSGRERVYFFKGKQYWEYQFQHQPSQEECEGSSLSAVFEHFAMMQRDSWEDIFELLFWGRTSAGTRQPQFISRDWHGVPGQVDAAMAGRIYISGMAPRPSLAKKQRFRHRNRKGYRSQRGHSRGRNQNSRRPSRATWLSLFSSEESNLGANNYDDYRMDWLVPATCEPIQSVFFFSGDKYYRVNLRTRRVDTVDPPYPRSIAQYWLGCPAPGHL
Put plainly: Binding of PAI-1 to endothelial cell matrix. The settings on record: 2 μg/ml PAI-1; competitors each 500 nM; 10 μM ZnCl2 (FIG. 1). The method, then:
The extracellular matrix of human umbilical vein endothelial cells was prepared according to standard procedures. PAI-1-depleted extracellular matrix was obtained by subsequent incubation with glycine (0.1 M, pH 2.3) for 2 h at 25° C. Wells were washed and blocked with phosphate buffered saline containing 3% (wt/vol) bovine serum albumin before proceeding with binding assays. Binding of PAI-1 (2 μg/ml) to the extracellular matrix was performed in a final volume of 50 μl Tris-buffered saline containing 0.1% Tween-20, 0.3% (wt/vol) bovine serum albumin for 2 h at 22° C. in the absence or presence of […] and different kininogen forms. Following the incubation period and a washing step, bound PAI-1 was quantitated by anti-human PAI-1 monoclonal antibody 12A4, followed by addition of 1:1000 diluted peroxidase-conjugated goat anti-mouse immunoglobulins. The conversion of the substrate 2,2,-azino-di(3-ethyl) benz-thiazoline sulphate was monitored at 405 nm in a Thermomax microtiter plate reader. […]
FIG. 1 The binding of 2 μg/ml PAI-1 to PAI-1-depleted (2 h glycine preincubation) extracellular matrix of cultured endothelial cells was tested in the absence (−)or presence of HK, HKa, GST-domain 5 (D5), the peptides HK483 and HK486 (each 500 nM) in a buffer containing 10 μM ZnCl2. Specific binding of PAI-1 is presented as absorbance at 405 nm.

The test system of a further experiment is PAI-1. The experiment can be described thus: Urokinase-mediated clot lysis in the presence of PAI-1. The class given is biochemical. As to conditions: not shown.
In experiment [2] the target is T2, platelet αIIbβ3-integrin with vitronectin (Homo sapiens, UniProt P04004).
T2 sequence (P04004 20-478): T1 sequence (P04004 20-478)
Put plainly: Binding of vitronectin to αIIbβ3-integrin. The settings on record: vitronectin 2 μg/ml, immobilized αIIbβ3-integrin 5 μg/ml, 10 μM ZnCl2 (FIG. 3). The protocol: Microtiter plates were coated with 5 μg/ml αIIbβ3-integrin in Tris-buffered saline, pH 7.4, containing 1 mM CaCl2, 1 mM MgCl2 overnight at 4° C. and then blocked with 3% (w/v) bovine serum albumin. Binding of multimeric vitronectin (2 μg/ml) was performed in a final volume of 50 μl Tris-buffered saline containing 0.1% Tween-20, 0.3% (w/v) bovine serum albumin, 1 mM CaCl2 and 1 mM MgCl2 for 2 h at 22° C. in the absence or presence of 10 μM ZnCl2 and different kininogen forms. After the incubation period, monoclonal anti-vitronectin antibody VN7 at a concentration of 125 ng/ml was added, followed by addition of 1:1000 diluted peroxidase-conjugated goat anti-mouse immunoglobulins, respectively. Binding was quantitated as described above.
FIG. 3 The binding of vitronectin (2 μg/ml) to immobilized αIIbβ3-integrin (5 μg/ml) in the absence or presence of increasing concentrations of PAI-1 (filled squares), HKa (filled circles) or GST-domain 5 (open circles) in a buffer containing 10 μM ZnCl2 was carried out. Specific binding is presented as absorbance at 405 nm.

The test system of the next experiment is platelets. Put plainly: Platelet adhesion onto vitronectin-coated plates. The class given is cell-based. The settings on record: competitors each 250 nM (FIG. 4). The protocol:
Multiwell plates were coated with 5 μg/ml multimeric vitronectin (dissolved in bicarbonate buffer, pH 9.6) and blocked with 3% (wt/vol) bovine serum albumin for 16 h at 4° C. Platelets stained with calcein acetoxymethyl ester (calcein-AM, 2.5 μM) (15 min at 37° C. in the dark) at a density of 5×10^6 cells suspended in 50 μl HEPES-Tyrode buffer containing 4 mM MgCl2 were added together with the respective competitors and incubated for 30 min at 37° C. After three washes with phosphate buffered saline, bound platelets were lysed with 100 μl of lysis buffer (150 mM NaCl, 10 mM Tris-CH1, pH 7.5, 5 mM EDTA, 1% (wt/vol) NP-40, 1 mM phenyl-methylsulfonyl fluoride, 20 μg/ml soybean trypsin inhibitor) and quantified in a fluorescent plate reader (excitation filter 492 nm, emission filter 535 nm).
FIG. 4. The adhesion of platelets to vitronectin in the absence (−) or presence of HK, HKa, GST-domain 5(D5), or the peptides HK483 and HK486 (each 250 nM) was carried out. Cell adhesion is presented as % of control.

The test system of another experiment is platelet-rich plasma. Put plainly: Aggregation of platelet-rich plasma. The class given is cell-based. As to conditions: Adenosin-diphosphate (5 μM)-induced; competitors each 1000 nM (FIG. 5). The method, then: Platelet-rich plasma from fresh whole blood in sodium citrate was prepared by centrifugation of anticoagulated whole blood at 150 g for 20 min. After incubation of 0.45 ml of platelet rich plasma with different kininogen forms as indicated in the figure legends, and addition of 5 μl of […] at a final concentration of 5 μM, platelet aggregation was induced. Aggregation was quantitated by following the change in light transmission in a standardized aggregometer.
FIG. 5 Adenosin-diphosphate (5 μM)-induced aggregation of platelet-rich plasma was performed in the absence (−) or presence of GST-domain 5 (D5), or the peptides HK483 and HK486 (each 1000 nM). Platelet aggregation is presented as % of control.

On to “Gly-486-Lys-502 (GKHKNKGKKNGKHNGWK; UniProt P01042 504-520, looked up, fragment) [HK486, peptide derived from the carboxy-terminus of the domain 5 of HK]”, for which the “binding of PAI-1 to vitronectin in PAI-1-depleted (glycine-treated) extracellular matrix of endothelial cells” value in experiment [1] is “inhibited”. Besides, the “urokinase-mediated clot lysis, which is inhibited in the presence of PAI-1” value in the experiment on PAI-1 is “enhance”. In addition, in experiment [2], the “interaction of platelet αIIbβ3-integrin with vitronectin” value is recorded as “block”. The “αIIbβ3-integrin-mediated platelet adhesion to vitronectin” value in the experiment on platelets is listed as “block”. Further, in the experiment with platelet-rich plasma, the “aggregation of platelet-rich plasma” value is “inhibit”.

The values above are taken from patent publication US20050058636A1, “Medicament against thrombotic diseases” (priority 2002, published 2005).
